Results published in patent US20120269790A1, “USE OF PLANT EXTRACTS AS PREBIOTICS, COMPOSITIONS AND FOODS CONTAINING SUCH EXTRACT” (priority 2009, published 2012).

Assays:
[1] = molecular target: T1, alpha-amylase from pancreas of pig (Sus scrofa, UniProt P00690); assay: In vitro inhibition of pig alpha-amylase; type: biochemical; conditions: 35 micrograms/ml; 100% = activity without inhibitor
T1 construct: alpha-amylase from pancreas of pig; purchased Sigma; host or cells: pig pancreas
T1 sequence (P00690 16-511): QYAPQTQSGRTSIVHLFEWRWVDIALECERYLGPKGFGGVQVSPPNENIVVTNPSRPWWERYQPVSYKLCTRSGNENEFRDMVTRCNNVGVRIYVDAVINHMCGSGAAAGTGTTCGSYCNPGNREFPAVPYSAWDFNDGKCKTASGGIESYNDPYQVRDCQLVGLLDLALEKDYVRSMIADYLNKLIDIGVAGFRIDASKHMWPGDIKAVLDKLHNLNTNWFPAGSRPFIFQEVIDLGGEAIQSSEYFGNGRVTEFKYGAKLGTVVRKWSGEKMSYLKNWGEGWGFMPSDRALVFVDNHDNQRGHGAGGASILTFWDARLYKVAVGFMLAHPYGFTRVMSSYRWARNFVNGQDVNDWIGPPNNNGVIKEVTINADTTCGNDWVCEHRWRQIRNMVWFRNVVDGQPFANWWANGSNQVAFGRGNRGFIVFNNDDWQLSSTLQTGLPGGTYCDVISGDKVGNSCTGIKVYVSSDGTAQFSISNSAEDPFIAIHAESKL
Procedure: The enzymes tested were obtained from the following sources: alpha-amylase from pancreas of pig and alpha-glucosidase from Saccharomyces cerevisiae (both purchased from Sigma) and alpha-glucosidase from pig (isolated from pig intestine according to Menakshy et al. 2008).
Measures alpha-amylase activity and alpha-glucosidase were carried out according to procedures supplied by Sigma acquired with enzymes. Briefly, the alpha-glucosidase activity was determined spectrophotometrically at 400 nm, with p-Nitrophenyl α-D-Glucoside (PNP) as substrate and alpha-amylase activity was determined spectrophotometrically at 540 nm, with soluble potato starch as substrate. As a positive control measurements were performed with acarbose as inhibitor.
For measures with pig alpha-amylase the positive control measures were with acarbose at 35 micrograms/ml, while the concentration of pomegranate extract tested was 250 micrograms/ml.

[2] = molecular target: T2, 3-hydroxy-3-methylglutaryl-CoA reductase (HMGR) (Homo sapiens, UniProt P04035); assay: In vitro HMGR activity (Sigma kit); type: biochemical; conditions: 500 nanomolar; 100% = activity without inhibitor
T2 construct: purchased Sigma
T2 sequence (P04035 426-888 limits assumed): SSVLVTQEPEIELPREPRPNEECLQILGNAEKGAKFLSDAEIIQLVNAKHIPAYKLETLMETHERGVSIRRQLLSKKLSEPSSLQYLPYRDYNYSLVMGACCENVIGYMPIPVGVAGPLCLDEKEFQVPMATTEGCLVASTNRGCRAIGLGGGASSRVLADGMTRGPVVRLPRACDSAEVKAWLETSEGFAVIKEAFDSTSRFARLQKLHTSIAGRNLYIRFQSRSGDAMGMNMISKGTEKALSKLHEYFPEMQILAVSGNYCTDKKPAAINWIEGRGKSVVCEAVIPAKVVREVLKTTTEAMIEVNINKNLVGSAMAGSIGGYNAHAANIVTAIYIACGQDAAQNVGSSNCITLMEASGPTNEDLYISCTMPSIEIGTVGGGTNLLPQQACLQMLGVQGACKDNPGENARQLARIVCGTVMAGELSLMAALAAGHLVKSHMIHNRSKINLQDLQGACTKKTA
Procedure: Measurements were performed in triplicate. In the case of HMGR concentration measurements used for positive control with pravastatin was 500 nanomolar, while the concentration of pomegranate extract tested was 100 micrograms/ml.

C[C@H]1O[C@H](O[C@H]2[C@H](O)[C@@H](O)[C@@H](O[C@H]3[C@H](O)[C@@H](O)C(O)O[C@@H]3CO)O[C@@H]2CO)[C@H](O)[C@@H](O)[C@@H]1N[C@H]1C=C(CO)[C@@H](O)[C@H](O)[C@H]1O (some centres unmarked) [acarbose]
% Pig alfa-amilase Activity [1]: 41.2 ± 2.3%

CC[C@H](C)C(=O)O[C@H]1C[C@H](O)C=C2C=C[C@H](C)[C@H](CC[C@@H](O)C[C@@H](O)CC(=O)O)[C@H]21 [pravastatine, pravastatin]
% HMGR activity [2]: 9.7 ± 3.4%
